Patent US6410792B1, “Amide derivatives and methods for using the same as selective neuropeptide Y receptor antagonists” (Bayer Corporation, priority 1997, dated 2002)
Counter-ions that a name gives are not always drawn. Like-named read-outs stand apart in the source and are kept apart here.

Columns and labels:
Human NPY5 receptor = target: T1, Human NPY5 receptor (Homo sapiens, UniProt Q15761); experiment: Human NPY5 receptor binding assay ([125I]PYY, membrane protein)
T1 sequence (Q15761 1-445): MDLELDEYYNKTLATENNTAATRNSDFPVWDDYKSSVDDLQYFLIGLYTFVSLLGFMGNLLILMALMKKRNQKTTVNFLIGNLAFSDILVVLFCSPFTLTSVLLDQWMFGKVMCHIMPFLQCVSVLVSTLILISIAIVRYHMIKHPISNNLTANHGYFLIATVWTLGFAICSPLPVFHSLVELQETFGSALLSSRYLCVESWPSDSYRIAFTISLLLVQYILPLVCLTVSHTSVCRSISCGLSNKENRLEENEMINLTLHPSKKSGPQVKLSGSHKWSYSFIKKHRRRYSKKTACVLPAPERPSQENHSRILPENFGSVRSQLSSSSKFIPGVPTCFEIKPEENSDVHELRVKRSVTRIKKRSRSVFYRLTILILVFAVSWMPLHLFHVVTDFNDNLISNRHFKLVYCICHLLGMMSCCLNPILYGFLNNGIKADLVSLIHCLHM
Summary of the method: (§1)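 Radioligand displacement: 75-100 pM [125I]PYY (porcine), membranes, drug dilution; 2 h, RT, mixing; 25 mM Tris pH 7.4 with 0.1% BSA, 0.5 mg/ml bacitracin. NSB 1 μM PYY. Filtration on PEI-treated GF/C, ice-cold buffer wash, gamma or scintillation counting.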

Human NPY1 receptor = target: T2, Human NPY1 receptor (Homo sapiens, UniProt P25929); experiment: Human NPY1 receptor binding assay ([125I]PYY, SK-N-MC cells); conditions: [125I]PYY, SK-N-MC cells; read-out: hNPYI IC50
T2 construct: host or cells: SK-N-MC cells
T2 sequence (P25929 1-384): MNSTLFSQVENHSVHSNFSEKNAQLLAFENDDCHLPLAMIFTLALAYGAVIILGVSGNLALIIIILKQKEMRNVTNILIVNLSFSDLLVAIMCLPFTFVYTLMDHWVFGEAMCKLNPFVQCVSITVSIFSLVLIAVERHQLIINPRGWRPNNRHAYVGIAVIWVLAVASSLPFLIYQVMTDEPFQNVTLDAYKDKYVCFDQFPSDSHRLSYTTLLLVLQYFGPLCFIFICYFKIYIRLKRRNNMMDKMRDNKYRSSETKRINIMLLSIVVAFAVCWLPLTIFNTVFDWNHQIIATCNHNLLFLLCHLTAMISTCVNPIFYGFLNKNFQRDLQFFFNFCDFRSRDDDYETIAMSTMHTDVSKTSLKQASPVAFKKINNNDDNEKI
Summary of the method: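 Whole-cell competition with ~50 pM [125I]PYY on SK-N-MC monolayers, 3 h at room temperature after 30 min preincubation in HEPES-buffered (pH 7.3) serum-free DMEM containing protease inhibitors. Gamma counting of cell lysates; 1 μM NPY gave nonspecific binding.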

Y2 receptor = target: T3, Y2 receptor (Homo sapiens, UniProt P49146); experiment: Y2 receptor binding assay ([125I]PYY, membrane protein); conditions: membrane protein, read-out: hNPY2 IC50
T3 sequence (P49146 1-381): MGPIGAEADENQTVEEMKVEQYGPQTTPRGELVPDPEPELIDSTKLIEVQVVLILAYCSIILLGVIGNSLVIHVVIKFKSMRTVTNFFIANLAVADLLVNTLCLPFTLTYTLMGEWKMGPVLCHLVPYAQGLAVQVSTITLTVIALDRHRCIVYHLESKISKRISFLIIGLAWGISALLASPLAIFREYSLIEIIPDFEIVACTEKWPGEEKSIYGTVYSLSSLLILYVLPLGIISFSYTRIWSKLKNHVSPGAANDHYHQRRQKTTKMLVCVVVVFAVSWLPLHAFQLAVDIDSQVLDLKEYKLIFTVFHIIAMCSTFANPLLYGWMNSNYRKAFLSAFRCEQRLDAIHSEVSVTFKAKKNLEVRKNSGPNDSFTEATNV
Summary of the method: (§2)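 Filtration binding with membrane protein and drug dilution, 2 h at room temperature with mixing, radioactivity counted by gamma or scintillation. Y2: 25 pM [125I]PYY in Krebs-Ringer bicarbonate pH 7.4 with 0.01% BSA, nonspecific by 1 μM NPY. Y4/PP1: 50 pM [125I]hPP in HEPES-buffered saline pH 7.4 with protease inhibitors and 0.3% BSA, nonspecific by 1 μM hPP.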

Rat NPY5 receptor [1] = target: T4, Rat NPY5 receptor (Rattus norvegicus, UniProt Q63634); experiment: Rat NPY5 cyclase assay (in vitro functional assay, forskolin-stimulated adenylate cyclase, cAMP); type: cell-based; conditions: percentage of forskolin-stimulated adenylate cyclase; for activity at 10 µM: 20 min, read-out: rNPY5 % FSAC (10 μM)
T4 sequence (Q63634 1-445): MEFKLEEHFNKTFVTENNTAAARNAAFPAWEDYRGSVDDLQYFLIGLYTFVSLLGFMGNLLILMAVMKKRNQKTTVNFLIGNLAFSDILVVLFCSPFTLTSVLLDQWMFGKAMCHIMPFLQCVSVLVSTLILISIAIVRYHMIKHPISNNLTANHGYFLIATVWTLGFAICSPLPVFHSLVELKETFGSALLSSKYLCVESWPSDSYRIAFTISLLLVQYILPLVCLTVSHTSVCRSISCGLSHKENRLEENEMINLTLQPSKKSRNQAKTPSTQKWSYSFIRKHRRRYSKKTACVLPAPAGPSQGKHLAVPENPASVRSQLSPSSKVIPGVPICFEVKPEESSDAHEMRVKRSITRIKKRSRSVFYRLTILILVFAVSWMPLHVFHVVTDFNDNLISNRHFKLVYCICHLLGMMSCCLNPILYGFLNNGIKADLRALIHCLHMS
Experimental: D. Rat NYP5 Cyclase Assay (In Vitro Functional Assay)
Cells stably expressing the rat NPY5 receptor are resuspended in serum-free DMEM containing 10 mM HEPES (pH 7.4) and 1 mM isobutylmethylxanthine (IBMX). […] forskolin and drug dilution are then added to the cells. After a 20 minute incubation of the samples at 37° C, the assay is stopped by placing the samples in boiling water for 3 minutes. The cAMP produced in each sample is quantitated with a radioimmunoassay kit (NEN DuPont). Data are expressed as a percentage of forskolin-stimulated adenylate cyclase.

Rat NPY5 receptor [2] = target: T4, Rat NPY5 receptor; experiment: Rat NPY5 receptor binding assay ([125I]PYY, membrane protein)
Summary of the method: as §1

human Y4/PP1 receptor = human Y4/PP1 receptor (Homo sapiens, UniProt P50391); experiment: Human Y4/PP1 receptor binding assay ([125I]human PP, membrane protein); conditions: [125I]human PP, membrane protein; read-out: hNPY4 IC50
Summary of the method: as §2

[3] = [125I]PYY, read-out: hNPY5 IC50
[4] = [125I]PYY, read-out: rNPY5 IC50

human Y4/PP1 receptor, sequence (P50391 whole entry): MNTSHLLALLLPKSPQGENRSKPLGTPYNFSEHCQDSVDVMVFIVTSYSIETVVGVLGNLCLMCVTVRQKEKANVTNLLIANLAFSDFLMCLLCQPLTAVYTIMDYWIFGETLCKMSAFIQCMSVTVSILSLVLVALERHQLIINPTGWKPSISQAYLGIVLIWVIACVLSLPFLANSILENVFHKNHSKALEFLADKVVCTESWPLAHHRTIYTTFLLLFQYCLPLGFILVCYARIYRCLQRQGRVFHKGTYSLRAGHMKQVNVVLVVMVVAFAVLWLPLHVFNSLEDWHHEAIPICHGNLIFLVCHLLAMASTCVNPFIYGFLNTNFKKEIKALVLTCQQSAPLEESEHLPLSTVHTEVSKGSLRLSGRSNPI

SMILES | IC50 (Human NPY5 receptor; [3]) | IC50 (Human NPY1 receptor) | IC50 (Y2 receptor; [125I]PYY) | activity at 10 µM (Rat NPY5 receptor [1]; 10 μM) | IC50 (Rat NPY5 receptor [2]; [4]) | IC50 (human Y4/PP1 receptor) | melting point | other results
Cc1ccc(NC(=O)CN2CCC(n3c(=O)[nH]c4ccccc43)CC2)cc1 [Compound 359, 2-[4-(2-Oxo-2,3-dihydro-benzoimidazol-1-yl)-piperidin-1-yl]-N-p-tolyl-acetamide, reference compound] | 1300 nM | > 5000 nM | > 5000 nM | 104% | 1200 nM | > 5000 nM |  | 
NC(=O)C1CCCN1CC(=O)Nc1ccc(C2CCCCC2)cc1 (centres unmarked) [Compound 297, 1-[(4-Cyclohexyl-phenylcarbamoyl)-methyl]-pyrrolidin-2-carboxylic acid amide; hydrochloride] | 32 nM | > 5000 nM | > 5000 nM | 103% | 45 nM | > 5000 nM |  | 
O=C(CN1CCC(O)(c2ccccc2)CC1)Nc1ccc(C2CCCCC2)cc1 [Compound 26, N-(4-Cyclohexyl-phenyl)-2-(4-hydroxy-4-phenyl-piperidin-1-yl)-acetamide] |  |  |  |  |  |  |  | IC50 (Human NPY5 receptor; hNPY5 IC50, [125I]PYY binding): 93 nM; IC50 (Y2 receptor; [125I]PYY binding): > 5000 nM; activity at 10 µM (Rat NPY5 receptor [1]; compound at 10 μM): 111%; IC50 (Rat NPY5 receptor [2]; rNPY5 IC50, [125I]PYY binding): 37 nM
O=C(CN1CCC(n2c(=O)[nH]c3ccccc32)CC1)Nc1ccc(O)cc1 [Compound 345, N-(4-Hydroxy-phenyl)-2-[4-(2-oxo-2,3-dihydro-benzoimidazol-1-yl)-piperidin-1-yl]-acetamide, reference compound] | 2900 nM | > 5000 nM | > 5000 nM | 93% | 3300 nM | > 5000 nM |  | 
Cc1ccc(C2(O)CCN(CC(=O)Nc3ccc(C4CCCCC4)cc3)CC2)cc1 [Compound 298, N-(4-Cyclohexyl-phenyl)-2-(4-hydroxy-4-p-tolyl-piperidin-1-yl)-acetamide; hydrochloride] |  | > 5000 nM | > 5000 nM | 103% |  | > 5000 nM |  | IC50 (Human NPY5 receptor; hNPY5 IC50, [125I]PYY): 30 nM; IC50 (Rat NPY5 receptor [2]; rNPY5 IC50, [125I]PYY): 44 nM
Cl.O=C(CN1CCC(n2c(=O)[nH]c3ccccc32)CC1)Nc1ccc(C(=O)C(=O)c2ccccc2)cc1 [Compound 265] |  |  |  |  |  |  |  | rNPY5 % FSAC (10 μM) (Rat NPY5 receptor [1]; 10 μM): 90%
Cc1ccc(OC(=O)c2ccc(NC(=O)CN3CCC(n4c(=O)[nH]c5ccccc54)CC3)cc2)cc1 [Compound 264, 4-{2-[4-(2-Oxo-2,3-dihydro-benzoimidazol-1-yl)-piperidin-1-yl]-acetylamino}-benzoic acid P-tolyl ester; hydrochloride] | 180 nM |  | > 5000 nM | 139% | 100 nM | > 5000 nM |  | 
CC(C)N(CCNC(=O)CN1CCC(n2c(=O)[nH]c3ccccc32)CC1)C(C)C [Compound 281, N-(2-Diisopropylamino-ethyl)-2-[4-(2-oxo-2,3-dihydro-benzoimidazol-1-yl)-piperidin-1-yl]-acetamide] | > 10000 nM | > 5000 nM | > 5000 nM |  | > 10000 nM | > 5000 nM | 195 to 196 °C | 
O=C(CN1CCC(n2c(=O)[nH]c3ccccc32)CC1)Nc1cccc(C(=O)c2ccccc2)c1 [Compound 268, N-(3-Benzoyl-phenyl)-2-[4-(2-oxo-2,3-dihydro-benzoimidazol-1-yl)-piperidin-1-yl]-acetamide] | 130 nM | > 5000 nM | > 5000 nM |  | 120 nM | > 5000 nM | 134 to 135 °C | 
CNC1(C(N)=O)CCN(CC(=O)Nc2ccc(C3CCCCC3)cc2)CC1 [Compound 30, 1-[(4-Cyclohexyl-phenylcarbamoyl)-methyl]-4-methylamino-piperidin-4-carboxylic acid amide] |  |  |  |  |  |  |  | IC50 (Human NPY5 receptor; [125I]PYY binding, read-out: hNPY5 IC50): 60 nM; IC50 (Y2 receptor; [125I]PYY binding): > 5000 nM; activity at 10 µM (Rat NPY5 receptor [1]; compound at 10 μM): 107%; IC50 (Rat NPY5 receptor [2]; [125I]PYY binding, read-out: rNPY5 IC50): 13 nM
O=C(CN1CCC(n2c(=O)[nH]c3ccccc32)CC1)Nc1cccc2c1-c1ccccc1C2=O [Compound 308, 2-[4-(2-Oxo-2,3-dihydro-benzoimidazol-1-yl)-piperidin-1-yl]-N-(9-oxo-9H-fluoren-4-yl)-acetamide] | 360 nM | > 5000 nM | > 5000 nM |  | 300 nM | > 5000 nM | 205 °C | 
Cl.O=C(CN1CCC(n2c(=O)[nH]c3ccccc32)CC1)Nc1ccc2oc3ccccc3c2c1 [Compound 310, N-Dibenzofuran-2-yl-2-[4-(2-oxo-2,3-dihydro-benzoimidazol-1-yl)-piperidin-1-yl]-acetamide; hydrochloride] | 34 nM | > 5000 nM | > 5000 nM |  | 34 nM | > 5000 nM | 186 °C | 
Cl.O=C(CN1CCC(n2c(=O)[nH]c3ccccc32)CC1)NCC1CCCCC1 [Compound 282, N-Cyclohexylmethyl-2-[4-(2-oxo-2,3-dihydro-benzoimidazol-1-yl)-piperidin-1-yl]-acetamide; hydrochloride] | 380 nM | > 5000 nM | > 5000 nM |  | 313 nM | > 5000 nM | 196 to 197 °C | 
CC(C(=O)Nc1ccc(C2CCCCC2)cc1)N1CCC(n2c(=O)[nH]c3ccccc32)CC1 (centres unmarked) [Compound 278, N-(4-Cyclohexyl-phenyl)-2-[4-(2-oxo-2,3-dihydro-benzoimidazol-1-yl)-piperidin-1-yl]-propionamide] | 28 nM | > 5000 nM | > 5000 nM |  | 12 nM | > 5000 nM | 148 to 150 °C | 
